# From patent US20260265233A1, “BENZOTHIOPHENE DERIVATIVES AS RXFP1 AGONISTS” (BRISTOL-MYERS SQUIBB COMPANY, priority 2021, published 2026)
# Biological target: T1, human RXFP1 (Homo sapiens, UniProt Q9HBX9)
# T1 construct: expressed in transfected cells
# T1 sequence (Q9HBX9 1-757): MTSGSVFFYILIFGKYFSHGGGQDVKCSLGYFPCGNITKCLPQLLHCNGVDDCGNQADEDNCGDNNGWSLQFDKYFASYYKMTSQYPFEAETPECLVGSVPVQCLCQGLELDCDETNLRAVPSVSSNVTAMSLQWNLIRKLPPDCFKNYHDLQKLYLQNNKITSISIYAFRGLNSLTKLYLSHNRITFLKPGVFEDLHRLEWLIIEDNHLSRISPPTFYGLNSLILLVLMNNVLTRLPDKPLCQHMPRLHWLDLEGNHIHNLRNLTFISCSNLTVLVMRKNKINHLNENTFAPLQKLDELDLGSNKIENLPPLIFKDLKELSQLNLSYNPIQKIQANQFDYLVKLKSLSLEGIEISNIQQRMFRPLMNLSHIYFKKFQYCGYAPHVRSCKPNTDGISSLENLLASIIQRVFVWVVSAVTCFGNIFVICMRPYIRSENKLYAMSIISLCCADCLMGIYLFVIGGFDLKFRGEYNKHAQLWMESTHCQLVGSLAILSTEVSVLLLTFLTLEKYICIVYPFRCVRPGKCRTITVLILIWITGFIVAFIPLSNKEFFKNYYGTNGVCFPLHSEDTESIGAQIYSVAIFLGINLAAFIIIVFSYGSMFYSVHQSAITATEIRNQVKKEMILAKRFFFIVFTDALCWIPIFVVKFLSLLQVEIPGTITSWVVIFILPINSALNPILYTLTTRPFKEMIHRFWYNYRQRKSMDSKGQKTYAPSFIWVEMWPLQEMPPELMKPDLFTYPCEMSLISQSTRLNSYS
# Assay: hRXFP1 HEK293 cAMP assay (HTRF)
# Format: cell-based
# Conditions: HEK293 cells stably expressing human RXFP1; 30 min at rt; intracellular cAMP by HTRF
# Procedure, shortened: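 HEK293 cells stably expressing human RXFP1 treated 30 min at rt with compound (0.010 nM to 50 μM, 2% DMSO) in HBSS/HEPES buffer with 0.5 mM IBMX. Intracellular cAMP measured by HTRF (665/590 nm ratio) against a cAMP standard curve; potency fitted by 4-parameter logistic.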
row,EC50,SMILES
1,0.165 µM,"COc1ccc(C2CCCN(C(=O)C(C)(C)O)C2)cc1C(=O)Nc1c(C(=O)Nc2ccc(F)c(C(F)(F)F)c2)sc2cc(C(F)(F)F)ccc12 (centres unmarked) [Example 92, N-[4-fluoro-3-(trifluoromethyl)phenyl]-3-{5-[1-(2-hydroxy-2-methylpropanoyl)piperidin-3-yl]-2-methoxy-benzamido}-6-(trifluoromethyl)-1-benzothiophene-2-carboxamide]"
2,0.245 µM,"COC(=O)C(=O)N1CCCC(c2ccc(OC)c(C(=O)Nc3c(C(=O)Nc4ccc(F)c(C(F)(F)F)c4)sc4cc(C(F)(F)F)ccc34)c2)C1 (centres unmarked) [Example 94, methyl 2-(3-(3-((2-((4-fluoro-3-(trifluoromethyl)phenyl)carbamoyl)-6-(trifluoromethyl)benzo[b]thiophen-3-yl)carbamoyl)-4-methoxyphenyl)piperidin-1-yl)-2-oxoacetate]"
3,0.87 µM,"COc1ccc(C2CCCN(C(=O)CN(C)C)C2)cc1C(=O)Nc1c(C(=O)Nc2ccc(F)c(C(F)(F)F)c2)sc2cc(C(F)(F)F)ccc12 (centres unmarked) [Example 95, 3-(5-(1-(dimethylglycyl)piperidin-3-yl)-2-methoxy-benzamido)-N-(4-fluoro-3-(trifluoromethyl)phenyl)-6-(trifluoromethyl) benzo[b] thiophene-2-carboxamide]"
4,0.324 µM,"COc1ccc(C2CCCN(C(=O)CN)C2)cc1C(=O)Nc1c(C(=O)Nc2ccc(F)c(C(F)(F)F)c2)sc2cc(C(F)(F)F)ccc12 (centres unmarked) [Example 96, N-(4-fluoro-3-(trifluoromethyl)phenyl)-3-(5-(1-glycylpiperidin-3-yl)-2-methoxy-benzamido)-6-(trifluoromethyl) benzo[b] thiophene-2-carboxamide]"
5,0.607 µM,"COc1ccc(C2CCCN(C3COC3)C2)cc1C(=O)Nc1c(C(=O)Nc2ccc(F)c(C(F)(F)F)c2)sc2cc(C(F)(F)F)ccc12 (centres unmarked) [Example 97, N-(4-fluoro-3-(trifluoromethyl)phenyl)-3-(2-methoxy-5-(1-(oxetan-3-yl)piperidin-3-yl)benzamido)-6-(trifluoromethyl) benzo[b] thiophene-2-carboxamide]"
6,0.186 µM,"COc1ccc(C2CCCN(C(=O)C3CCC3)C2)cc1C(=O)Nc1c(C(=O)Nc2ccc(F)c(C(F)(F)F)c2)sc2cc(C(F)(F)F)ccc12 (centres unmarked) [Example 98, 3-(5-(1-(cyclobutane-carbonyl)piperidin-3-yl)-2-methoxy-benzamido)-N-(4-fluoro-3-(trifluoromethyl)phenyl)-6-(trifluoromethyl) benzo[b] thiophene-2-carboxamide]"
7,1.37 µM,"CNC(=O)CN1CCCC(c2ccc(OC)c(C(=O)Nc3c(C(=O)Nc4ccc(F)c(C(F)(F)F)c4)sc4cc(C(F)(F)F)ccc34)c2)C1 (centres unmarked) [Example 99, N-(4-fluoro-3-(trifluoromethyl)phenyl)-3-(2-methoxy-5-(1-(2-(methylamino)-2-oxoethyl)piperidin-3-yl)benzamido)-6-(trifluoromethyl) benzo[b] thiophene-2-carboxamide]"
8,2.01 µM,"COc1ccc(C2CCCN(CCS(C)(=O)=O)C2)cc1C(=O)Nc1c(C(=O)Nc2ccc(F)c(C(F)(F)F)c2)sc2cc(C(F)(F)F)ccc12 (centres unmarked) [Example 100, N-(4-fluoro-3-(trifluoromethyl)phenyl)-3-(2-methoxy-5-(1-(2-(methylsulfonyl)ethyl)piperidin-3-yl)benzamido)-6-(trifluoromethyl) benzo[b] thiophene-2-carboxamide]"
9,2.23 µM,"COc1ccc(C2CCCN(CC(O)CO)C2)cc1C(=O)Nc1c(C(=O)Nc2ccc(F)c(C(F)(F)F)c2)sc2cc(C(F)(F)F)ccc12 (centres unmarked) [Example 102, 3-(5-(1-(2,3-dihydroxypropyl)piperidin-3-yl)-2-methoxy-benzamido)-N-(4-fluoro-3-(trifluoromethyl)phenyl)-6-(trifluoromethyl) benzo[b] thiophene-2-carboxamide]"
10,0.277 µM,"COc1ccc(C2CCCN(C(=O)C(C)(C)O)C2)cc1C(=O)Nc1c(C(=O)Nc2ccc(F)c(C(F)(F)F)c2)sc2cc(C(F)(F)F)ccc12 (centres unmarked) [Example 104, N-[4-fluoro-3-(trifluoromethyl)phenyl]-3-{5-[1-(2-hydroxy-2-methylpropanoyl)piperidin-3-yl]-2-methoxy-benzamido}-6-(trifluoromethyl)-1-benzothiophene-2-carboxamide]"
11,0.248 µM,"COc1ccc(C2CC3(C2)CN(C2COC2)C3)cc1C(=O)Nc1c(C(=O)Nc2ccc(F)c(C(F)(F)F)c2)sc2cc(C(F)(F)F)ccc12 [Example 106, N-(4-fluoro-3-(trifluoromethyl)phenyl)-3-(2-methoxy-5-(2-(oxetan-3-yl)-2-azaspiro[3.3]heptan-6-yl)benzamido)-6-(trifluoromethyl) benzo[b] thiophene-2-carboxamide]"
12,0.509 µM,"COc1ccc(C2CC3(C2)CN(C(=O)CC(C)(C)O)C3)cc1C(=O)Nc1c(C(=O)Nc2ccc(F)c(C(F)(F)F)c2)sc2cc(C(F)(F)F)ccc12 [Example 109, N-(4-fluoro-3-(trifluoromethyl)phenyl)-3-(5-(2-(3-hydroxy-3-methylbutanoyl)-2-azaspiro[3.3]heptan-6-yl)-2-methoxy-benzamido)-6-(trifluoromethyl) benzo[b] thiophene-2-carboxamide]"
13,0.144 µM,"COc1cc(F)c(C#CCO)cc1C(=O)Nc1c(C(=O)Nc2ccc(F)c(C(F)(F)F)c2)sc2cc(C(F)(F)F)ccc12 [Example 110, N-(4-fluoro-3-(trifluoromethyl)phenyl)-3-(4-fluoro-5-(3-hydroxyprop-1-yn-1-yl)-2-methoxy-benzamido)-6-(trifluoromethyl) benzo[b] thiophene-2-carboxamide]"
14,0.0283 µM,"COc1ccc(-c2cc(S(=O)(=O)NC(C)(C)C)ccc2F)cc1C(=O)Nc1c(C(=O)Nc2ccc(F)c(C(F)(F)F)c2)sc2cc(C(F)(F)F)ccc12 [Example 111, 3-(5′-(N-(tert-butyl)sulfamoyl)-2′-fluoro-4-methoxy-[1,1′-biphenyl]-3-carboxamido)-N-(4-fluoro-3-(trifluoromethyl)phenyl)-6-(trifluoromethyl) benzo[b] thiophene-2-carboxamide]"
15,0.65 µM,"CCS(=O)(=O)Nc1cncc(-c2ccc(OC)c(C(=O)Nc3c(C(=O)Nc4ccc(F)c(C(F)(F)F)c4)sc4cc(C(F)(F)F)ccc34)c2)c1 [Example 116, 3-(5-(5-(ethylsulfonamido)pyridin-3-yl)-2-methoxy-benzamido)-N-(4-fluoro-3-(trifluoromethyl)phenyl)-6-(trifluoromethyl) benzo[b] thiophene-2-carboxamide]"
16,0.131 µM,"COc1ccc(-c2cncc(NS(C)(=O)=O)c2)cc1C(=O)Nc1c(C(=O)Nc2ccc(F)c(C(F)(F)F)c2)sc2cc(C(F)(F)F)ccc12 [Example 117, N-(4-fluoro-3-(trifluoromethyl)phenyl)-3-(2-methoxy-5-(5-(methyl-sulfonamido)pyridin-3-yl)benzamido)-6-(trifluoromethyl) benzo[b] thiophene-2-carboxamide]"
17,0.255 µM,"COc1ccc(-c2ccc(N3CCNCC3)nc2)cc1C(=O)Nc1c(C(=O)Nc2ccc(F)c(C(F)(F)F)c2)sc2cc(C(F)(F)F)ccc12 [Example 118, N-(4-fluoro-3-(trifluoromethyl)phenyl)-3-(2-methoxy-5-(6-(piperazin-1-yl)pyridin-3-yl)benzamido)-6-(trifluoromethyl) benzo[b] thiophene-2-carboxamide]"
18,0.282 µM,"COc1ccc(-c2cccc(S(=O)(=O)N(C)C)c2)cc1C(=O)Nc1c(C(=O)Nc2ccc(F)c(C(F)(F)F)c2)sc2cc(C(F)(F)F)ccc12 [Example 119, 3-(3′-(N,N-dimethyl-sulfamoyl)-4-methoxy-[1,1′-biphenyl]-3-carboxamido)-N-(4-fluoro-3-(trifluoromethyl)phenyl)-6-(trifluoromethyl) benzo[b] thiophene-2-carboxamide]"
19,0.228 µM,"COc1ccc(-c2cccc(C(C)(C)O)c2)cc1C(=O)Nc1c(C(=O)Nc2ccc(F)c(C(F)(F)F)c2)sc2cc(C(F)(F)F)ccc12 [Example 120, N-(4-fluoro-3-(trifluoromethyl)phenyl)-3-(3′-(2-hydroxypropan-2-yl)-4-methoxy-[1,1′-biphenyl]-3-carboxamido)-6-(trifluoromethyl) benzo[b] thiophene-2-carboxamide]"
20,0.111 µM,"COc1ccc(-c2cccc(CNS(C)(=O)=O)c2)cc1C(=O)Nc1c(C(=O)Nc2ccc(F)c(C(F)(F)F)c2)sc2cc(C(F)(F)F)ccc12 [Example 121, N-(4-fluoro-3-(trifluoromethyl)phenyl)-3-(4-methoxy-3′-(methylsulfon-amidomethyl)-[1,1′-biphenyl]-3-carboxamido)-6-(trifluoromethyl) benzo[b] thiophene-2-carboxamide]"
